Among the data in US6333338A, “Bispiperidines as antithrombotic agents” (Laboratoire L. Lafon, priority 1998, dated 2001) are IC50 and inhibition values, retold here.

The test system of test [1] is guinea pig platelets. The experiment in a line: In vitro inhibition of collagen-induced platelet aggregation, guinea pig platelets (PRP). It counts as cell-based, guinea pig (male Dunkin-Hartley). The following applies: Cavia porcellus, Platelet, 0.05 h, collagen 1 μg/ml, 3 minutes of contact at 37° C. As for the experimental part:
(§1) A study of the inhibitory activity of the compounds of formula I on platelet aggregation was carried out in vitro, i.e. by direct contact of solutions of variable concentrations of the compounds with platelets freshly separated from a sample of total blood, taken under standardized conditions, from laboratory animals (guinea pigs) and from healthy human subjects who have not received any substances or drugs that might interfere with blood clotting. The anti-platelet-aggregating activity was also studied ex vivo/vitro, i.e. after administration of the substances claimed to guinea pigs to measure the intensity and duration of the anti-aggregating action induced by the fraction of the test product absorbed and circulating in the blood.
Blood is taken by intracardiac puncture from male Dunkin-Hartley guinea pigs (weighing about 330 g), at a rate of 4.5 ml per 0.5 ml of trisodium citrate (concentration of the aqueous solution: 1.55%) in order to prevent all trace of clotting. The platelet-rich plasma (PRP) is obtained by centrifuging the tubes of total blood for 15 minutes at 150 g.
The PRPs are collected as "pools". The platelets contained in these pools are counted using a Coulter ZM haematology automatic device: if necessary, a dilution is carried out in order for the platelet concentration in the plasma to be between 200,000 and 400,000 platelets/mm^3. Simultaneously, other samples of these pools serve to prepare the platelet-poor plasma (PPP) by centrifugation at 1500 g for 15 minutes.
The kinetic study of the platelet aggregation is carried out by adding a collagen solution (1 μg/ml) to a volume of PRP, using a Chrono-log Corporation aggregometer (490-D1 or 560 VS) which uses an optical detection of the appearance of the thrombus.
The measurements of the aggregation inhibition are carried out after 3 minutes of contact at 37° C. with agitation.

Test [2] relates to human platelets. The experiment in a line: In vitro inhibition of collagen-induced platelet aggregation, human platelets (PRP). The test is classed as cell-based. The following applies: 0.05 h, collagen 5 μg/ml, 3 minutes of contact at 37° C., read-out: IC50 (M) in vitro, Man. As for the experimental part: as §1
Venous blood is taken from a group of ten healthy human subjects of the same age, by puncture into a vein of the fold of the elbow and is collected in a glass tube containing aqueous 0.129 M sodium citrate solution (1 volume of citrate solution per 9 volumes of blood). Each tube is then centrifuged a first time at 20° C. and 100 g for 15 minutes in order to obtain the platelet-rich plasma (PRP); after removing this PRP, the tube is again centrifuged at 2000 g for 15 minutes in order this time to remove the platelet-poor plasma (PPP).
For each identified sample of PRP, the platelets are counted using a Coulter ZM counter. Each sample is then used to study the variation in inhibition of the platelet aggregation triggered by the addition of a Chromo-par Reagent collagen glucose solution from Coultronics (used at a concentration of 5 μg/ml) as a function of the addition of increasing concentrations of each compound in a range covering the interval 10^-8 M→10^-5 M, (example of concentrations: 10^-8 M, […], 6×10^-6 M, 4×10^-6 M, 2×10^-6 M, 10^-6 M, […], 10^-5 M). Beforehand, for each compound, an aqueous 10^-3 M solution is prepared. A control test intended to check the possible effect of the solvents (reference value) on the platelet aggregation is introduced into each measurement series, and is measured after 3 minutes of contact at 37° C. with agitation.
From the percentages of inhibition of the platelet aggregation measured for each concentration of each compound, the 50% inhibitory concentration (IC50) is calculated.

For test [3], the system named is guinea pig platelets. In words: Ex vivo/vitro inhibition of platelet aggregation after administration via the gastric route in guinea pigs. Also noted: species or system guinea pig (Dunkin-Hartley). Particulars: Cavia porcellus, Platelet, fasted guinea pigs. As for the experimental part: as §1, with “blood. Evaluation of the anti-platelet-aggregating activity of the compounds is carried out in the same guinea pigs as those mentioned above (Dunkin-Hartley strain). […] The allocation of the treatments to the animals is random. The blood is taken and then treated under the same conditions as those described above for the in vitro studies. The results of the inhibition of the platelet aggregation obtained for each test concentration make it possible to calculate the IC50 concentration of each test product and the kinetics of the inhibitory effect and its duration of action.” for “blood.”

[4] abbreviates: 1 h before blood sampling, read-out: % of g.r. inhibition guinea pig ex vivo, d = 10 mg/kg, 1 h.
Setting [5] is: 1 h before blood sampling, read-out: % of g.r. inhibition guinea pig ex vivo, d = 150 mg/kg, 1 h.
The mark [6] stands for this setting: 2 h before blood sampling, read-out: % of g.r. inhibition guinea pig ex vivo, d = 150 mg/kg, 2 h.

Structures can show the parent of a compound that is named as a salt. Where two headings read alike, the source gives them in different places.

Regarding `O=C(O)CC(NC(=O)CNC(=O)C(CCC1CCNCC1)CCC1CCNCC1)c1ccc2c(c1)OCO2` (stereo not drawn) [Example 5, 3-(1,3-Benzodioxol-5-yl)-3-{[2-({4-(4-piperidyl)-2-[2-(4-piperidyl)ethyl]butanoyl}amino)acetyl]amino}-propanoic Acid Dihydrochloride], the results for the IC50 in test [1] and in test [2] were 2 µM and 2.8e-07 M, respectively. In addition, the inhibition at 10 mg/kg in test [3] (setting [4]) was -15%. Also, the inhibition at 150 mg/kg in test [3] (setting [5]) is -63%; in test [3] (setting [6]) it was -66%.
Turning to `CC(C)c1ccc(C(CC(=O)O)NC(=O)CNC(=O)C(CCC2CCNCC2)CCC2CCNCC2)cc1` (stereo not drawn) [Example 6, 3-(4-Isopropylphenyl)-3-{[2-({4-(4-piperidyl)-2-[2-(4-piperidyl)ethyl]butanoyl}amino)acetyl]amino}propanoic Acid Dihydrochloride], the IC50 – broadly, the midpoint of a concentration-inhibition curve – in test [1] was determined as 14 µM; in test [2], 2.7e-06 M. The inhibition at 150 mg/kg in test [3] (setting [5]) is -9%; in test [3] (setting [6]) it was -4%.
The like results for `COc1ccc(C(CC(=O)O)NC(=O)CNC(=O)C(CCC2CCNCC2)CCC2CCNCC2)cc1OC` (stereo not drawn) [Example 8, 3-(3,4-Dimethoxyphenyl)-3-{[2-({4-(4-piperidyl)-2-[2-(4-piperidyl)ethyl]butanoyl}amino)acetyl]amino}propanoic Acid Dihydrochloride] were, in that order, 35 µM, 1.6e-06 M, -10% and -31%.
Consider `COc1cccc(C(CC(=O)O)NC(=O)CNC(=O)C(CCC2CCNCC2)CCC2CCNCC2)c1` (stereo not drawn) [Example 10, 3-(3-Methoxyphenyl)-3-{[2-({4-(4-piperidyl)-2-[2-(4-piperidyl)ethyl]butanoyl}amino)acetyl]amino}propanoic Acid Dihydrochloride], for which the results for the IC50 in test [1] and in test [2] were 13 µM and 9.2e-07 M, respectively. The inhibition at 150 mg/kg is -14% in test [3] (setting [5]) and -18% in test [3] (setting [6]).
Regarding `O=C(O)CC(NC(=O)CNC(=O)C(CCC1CCNCC1)CCC1CCNCC1)c1cccnc1` (stereo not drawn) [Example 12, 3-(3-Pyridyl)-3-{[2-({4-(4-piperidyl)-2-[2-(4-piperidyl)ethyl]butanoyl}amino)acetyl]amino}propanoic Acid Trihydrochloride], the IC50 in test [1] came to 0.98 µM; in test [2], 1.5e-06 M. Moreover, the inhibition at 150 mg/kg in test [3] (setting [5]) was -74%; in test [3] (setting [6]), -68%.
`O=C(O)CC(CCc1ccccc1)NC(=O)CNC(=O)C(CCC1CCNCC1)CCC1CCNCC1` (stereo not drawn) [Example 15, 5-Phenyl-3-{[2-({4-(4-piperidyl)-2-[2-(4-piperidyl)ethyl]butanoyl}amino)acetyl]amino}pentanoic Acid Dihydrochloride]: the IC50 worked out at 4.3 µM in test [1] and 1.5e-07 M in test [2]. The results for the inhibition at 150 mg/kg in test [3] (setting [5]) and in test [3] (setting [6]) were -84% and -26%, respectively.
On to `O=C(O)C[C@H](NC(=O)CNC(=O)C(CCC1CCNCC1)CCC1CCNCC1)C(=O)NC12CC3CC(CC(C3)C1)C2` [Example 16, (3S)-4-(1-Adamantylamino)-4-oxo-3-{[2-({4-(4-piperidyl)-2-[2-(4-piperidyl)ethyl]butanoyl}amino)acetyl]amino}butanoic Acid Dihydrochloride], for which the IC50 in test [1] was determined as 3.5 µM; in test [2], 8.5e-07 M. For the same compound, in test [3] (setting [4]), the inhibition at 10 mg/kg is -5%. Moreover, the inhibition at 150 mg/kg is -54% in test [3] (setting [5]) and -47% in test [3] (setting [6]).
As to `O=C(O)C[C@H](NC(=O)CNC(=O)C(CCC1CCNCC1)CCC1CCNCC1)C(=O)NCCc1cccc2[nH]ccc12` [Example 17, (3S)-4-{[2-(1H-Indol-4-yl)ethyl]amino}-4-oxo-3-{[2-({4-(4-piperidyl)-2-[2-(4-piperidyl)ethyl]butanoyl}amino)acetyl]amino}butanoic Acid Dihydrochloride], the IC50 in test [1] is 7.4 µM; in test [2] it was 6e-06 M. Besides, in test [3] (setting [5]), the inhibition at 150 mg/kg was -19%.
For the compound `O=C(CNC(=O)C(CCC1CCNCC1)CCC1CCNCC1)NCC(NS(=O)(=O)c1ccccc1)C(=O)O` (stereo not drawn) [Example 26, 2-[(Phenylsulphonyl)amino]-3-{[2-({4-(4-piperidyl)-2-[2-(4-piperidyl)ethyl]butanoyl}amino)acetyl]amino}propanoic Acid Dihydrochloride], the 50% inhibitory concentration (IC50) in test [1] was 0.44 µM; in test [2], 5.3e-07 M. The inhibition at 10 mg/kg is -41% in test [3] (setting [4]) and -20% in test [3] (2 h before blood sampling, read-out: % of g.r. inhibition guinea pig ex vivo, d = 10 mg/kg, 2 h). Moreover, the results for the inhibition at 150 mg/kg in test [3] (setting [5]) and in test [3] (setting [6]) were -77% and -68%, respectively.
With `O=C(CNC(=O)C(CCC1CCNCC1)CCC1CCNCC1)NC[C@H](NS(=O)(=O)c1ccc2ccccc2c1)C(=O)O` [Example 27, (2S)-2-[(2-Naphthylsulphonyl)amino]-3-{[2-({4-(4-piperidyl)-2-[2-(4-piperidyl)ethyl]butanoyl}amino)acetyl]amino}propanoic Acid Dihydrochloride], the IC50 in test [1] amounted to 0.019 µM; in test [2], 4.4e-08 M.
As to `CCCc1ccc(S(=O)(=O)NC(CNC(=O)CNC(=O)C(CCC2CCNCC2)CCC2CCNCC2)C(=O)O)cc1` (stereo not drawn) [Example 28, 2-{[(4-Propylphenyl)sulphonyl]amino}-3-{[2-({4-(4-piperidyl)-2-[2-(4-piperidyl)ethyl]butanoyl}amino)acetyl]amino}propanoic Acid Dihydrochloride], the IC50 in test [1] was 1.5 µM; in test [2] it was 1.1e-06 M. Also, the inhibition at 10 mg/kg in test [3] (setting [4]) was -18%. The inhibition at 150 mg/kg was -73% in test [3] (setting [5]) and -75% in test [3] (setting [6]).
On to `O=C(O)C[C@H](NC(=O)CNC(=O)C(CCC1CCNCC1)CCC1CCNCC1)C(=O)N1CCC(Cc2ccccc2)CC1` [Example 29, (3S)-4-oxo-4-(4-Benzylpiperidino)-3-{[2-({4-(4-piperidyl)-2-[2-(4-piperidyl)ethyl]butanoyl}amino)acetyl]amino}-butanoic Acid Dihydrochloride], for which the figures for the IC50 in test [1] and in test [2] were 13 µM and 1e-05 M, respectively. Moreover, the inhibition at 150 mg/kg in test [3] (setting [5]) is -35%; in test [3] (setting [6]) it was -23%.
With `O=C(CNC(=O)C(CCC1CCNCC1)CCC1CCNCC1)NCC(NS(=O)(=O)c1ccc(-c2ccccc2)cc1)C(=O)O` (stereo not drawn) [Example 30, 2-[([1,1-Biphenyl]-4-ylsulphonyl)amino]-3-{[2-({4-(4-piperidyl)-2-[2-(4-piperidyl)ethyl]butanoyl}amino)acetyl]amino}propanoic Acid Dihydrochloride], the half-inhibitory concentration (IC50) in test [1] is 0.12 µM; in test [2], 1.4e-07 M. Besides, the inhibition at 10 mg/kg in test [3] (setting [4]) is -67%. Moreover, the inhibition at 150 mg/kg in test [3] (setting [6]) is -72%.
